Measured values taken from patent publication US20040122065A1 (priority 2002, published 2004).

Assay: Pharmacokinetic crossover trial: 2 mg sublingual tablet vs 4 mg commercial oral tizanidine (Zanaflex), plasma tizanidine by HPLC
Assay type: in vivo
Conditions: human
Method: Two groups were randomized and there was a one week washout period between administrations. The volunteers were in the fasted state when the drugs were administered. The sublingual tablets were placed under the tongue for 5 minutes and tablet remnants, if any, were swallowed. The oral formulation was administered with a glass of water. Blood samples were taken at 0, 0.5, 1.0, 1.5, 2.0, 2.5, 3.0, 4.0, 5.0, 6.0 and 7.0 hours after administration. […] The samples were blinded from the analysts.

In the case of `Clc1ccc2nsnc2c1NC1=NCCN1` [Tizanidine, 5-Chloro-N-(4,5-dihydro-1H-imidazol-2-yl)-2,1,3-benzothiadiazol-4-amine], the concentration at 0 h (other: sublingual, 2 mg, Plasma Tizanidine Levels, sublingual delivery of 2 mg tizanidine (sublingual tablet), fasted, 0 h after dosing, one column per test subject) is reported as less than 98.4 ng/g and the concentration at 0 h (po, 4 mg) is reported as less than 98.4 ng/g.
